Like-named read-outs stand apart in the source and are kept apart here.
Key:
Rat Liver [1] = details: ref ToxRefDB, cited from earlier work
Rat Liver [2] = details: ref ToxRefDB, cited from earlier work; remark: listed apart in the source
Rat Liver [3] = details: ref ToxRefDB, cited from earlier work; remark: listed apart in the source
[4] = molecular target: T1, AHR (aryl hydrocarbon receptor) (Homo sapiens, UniProt P35869); assay: ATG_Ahr_CIS: Factorial reporter gene assay (multiplexed transcription reporter, HepG2); format: cell-based; details: HepG2
T1 construct: endogenous in cells; host or cells: HepG2
T1 sequence (P35869 11-848): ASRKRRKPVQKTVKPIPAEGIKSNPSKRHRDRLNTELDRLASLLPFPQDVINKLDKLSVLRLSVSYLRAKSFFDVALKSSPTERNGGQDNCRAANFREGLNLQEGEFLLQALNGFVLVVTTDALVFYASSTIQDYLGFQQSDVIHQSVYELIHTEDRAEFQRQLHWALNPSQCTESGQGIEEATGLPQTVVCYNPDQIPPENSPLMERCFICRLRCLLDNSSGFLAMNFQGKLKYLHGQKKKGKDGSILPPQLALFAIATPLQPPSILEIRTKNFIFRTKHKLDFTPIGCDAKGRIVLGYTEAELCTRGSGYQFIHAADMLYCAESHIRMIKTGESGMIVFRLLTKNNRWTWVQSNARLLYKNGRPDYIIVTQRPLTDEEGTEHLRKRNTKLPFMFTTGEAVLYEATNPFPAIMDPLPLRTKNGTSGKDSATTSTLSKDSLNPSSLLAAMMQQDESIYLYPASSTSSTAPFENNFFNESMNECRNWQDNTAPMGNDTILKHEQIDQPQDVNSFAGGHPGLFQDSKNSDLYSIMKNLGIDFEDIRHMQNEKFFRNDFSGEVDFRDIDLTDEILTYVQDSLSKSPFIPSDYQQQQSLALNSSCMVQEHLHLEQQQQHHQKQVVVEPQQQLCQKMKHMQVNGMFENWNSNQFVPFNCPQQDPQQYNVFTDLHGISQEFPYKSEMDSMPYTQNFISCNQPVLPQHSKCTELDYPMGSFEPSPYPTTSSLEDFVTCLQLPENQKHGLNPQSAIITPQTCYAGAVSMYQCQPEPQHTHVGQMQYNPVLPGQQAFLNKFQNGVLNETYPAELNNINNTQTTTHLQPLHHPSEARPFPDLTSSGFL
Method: (§1) A multiple reporter transcription unit (MRTU) library consisting of 48 transcription factor binding sites was transfected into the HepG2 human liver hepatoma cell line. In addition to the cis-acting reporter genes (CIS), a modification of the approach was used to generate a trans-system (TRANS) with a mammalian one-hybrid assay consisting of an additional 25 MRTU library reporting the activity of nuclear receptor super-family members. […] These assays were performed by Attagene Inc. (Morrisville NC) under contract to EPA.
(§2) In addition to the cis-acting reporter genes (CIS), a modification of the approach was used to generate a trans-system (TRANS) with a mammalian one-hybrid assay consisting of an additional 25 MRTU library reporting the activity of nuclear receptor super-family members. […] Chemicals were then tested in the CIS and TRANS assays at seven concentrations starting at the MTC and followed by three-fold serial dilutions. These assays were performed by Attagene Inc. (Morrisville NC) under contract to EPA. Detailed description of the methods, data and analysis methods for this dataset will be presented in a separate publication.

CYP1A2 = assay: CLZD_CYP1A2: Change in expression of CYP1A2 (primary human hepatocytes); format: cell-based; details: 24 hr
Summary of the method: (§3)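 Five-point concentration series (0.004-40 µM) applied to primary human hepatocytes; 6/24/48 hr timepoints; transcript quantified by multiplexed nuclease protection.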

PXR (NR1I2) [5] = molecular target: T2, PXR (NR1I2) (Homo sapiens, UniProt O75469); assay: ATG_PXRE_CIS: Factorial reporter gene assay (HepG2); format: cell-based; parameters: endogenous in cells; host or cells: HepG2
T2 sequence (O75469 1-434): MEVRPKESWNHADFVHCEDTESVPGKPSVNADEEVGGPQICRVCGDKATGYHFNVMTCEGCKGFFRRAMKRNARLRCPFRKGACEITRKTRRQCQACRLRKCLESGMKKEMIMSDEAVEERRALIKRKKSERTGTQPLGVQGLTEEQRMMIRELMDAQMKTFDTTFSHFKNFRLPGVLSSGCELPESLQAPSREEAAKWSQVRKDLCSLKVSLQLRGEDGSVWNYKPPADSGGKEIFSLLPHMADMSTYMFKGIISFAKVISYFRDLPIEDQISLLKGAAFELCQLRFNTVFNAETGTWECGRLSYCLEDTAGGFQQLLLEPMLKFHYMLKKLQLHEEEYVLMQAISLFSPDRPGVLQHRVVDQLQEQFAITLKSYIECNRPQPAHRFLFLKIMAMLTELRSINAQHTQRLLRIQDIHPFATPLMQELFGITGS
Summary of the method: (§4)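 Seven test concentrations were run, beginning at the MTC and diluted three-fold serially. PXRE activity came from cis reporters, a 48-site MRTU library in HepG2 hepatoma cells. ERRg, FXR and PPARg activity came from trans one-hybrid reporters, an additional 25-member MRTU set.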

Mouse Liver [6] = details: chronic study, mouse liver; ref ToxRefDB; cited from earlier work
Mouse Liver [7] = details: ref ToxRefDB, cited from earlier work
[8] = molecular target: T3, ESR1 (estrogen receptor 1) (Homo sapiens, UniProt P03372); assay: ATG_ERa_TRANS: Factorial reporter gene assay (HepG2); format: cell-based
T3 construct: expressed in transfected cells; host or cells: HepG2
Method: as §1, §2

Mouse Liver [9] = details: chronic study, mouse liver; ref ToxRefDB; cited from earlier work; remark: listed apart in the source
[10] = molecular target: T4, PPARG (peroxisome proliferator-activated receptor gamma) (Homo sapiens, UniProt P37231); assay: ATG_PPARg_TRANS: Factorial reporter gene assay (HepG2); format: cell-based; details: HepG2
T4 construct: expressed in transfected cells; host or cells: HepG2
T4 sequence (P37231 1-505): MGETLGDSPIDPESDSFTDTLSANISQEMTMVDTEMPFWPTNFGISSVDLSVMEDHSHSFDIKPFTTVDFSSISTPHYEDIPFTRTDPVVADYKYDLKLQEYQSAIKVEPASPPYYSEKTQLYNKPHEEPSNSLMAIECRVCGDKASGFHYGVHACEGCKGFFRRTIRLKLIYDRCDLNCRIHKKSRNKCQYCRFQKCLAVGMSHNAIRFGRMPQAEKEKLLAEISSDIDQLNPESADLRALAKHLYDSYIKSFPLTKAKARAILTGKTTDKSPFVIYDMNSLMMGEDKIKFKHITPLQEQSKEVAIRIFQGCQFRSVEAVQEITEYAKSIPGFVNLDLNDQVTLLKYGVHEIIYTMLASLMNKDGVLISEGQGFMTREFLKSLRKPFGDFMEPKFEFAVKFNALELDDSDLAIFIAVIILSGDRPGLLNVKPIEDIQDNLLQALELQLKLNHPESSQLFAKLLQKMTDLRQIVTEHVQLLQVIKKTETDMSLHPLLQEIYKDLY
Summary of the method: as §4

CYP3A4 = assay: CLZD_CYP3A4: Change in expression of CYP3A4 (primary human hepatocytes); format: cell-based; details: 24 hr
Summary of the method: as §3

CYP2B6 = assay: CLZD_CYP2B6: Change in expression of CYP2B6 (primary human hepatocytes); format: cell-based; details: 24 hr
Summary of the method: as §3

PXR (NR1I2) [11] = molecular target: T2, PXR (NR1I2); assay: NVS_NR_hPXR: Human PXR Fluormone PXR (SXR) green (cell-free HTS); format: binding
Source text: These are a collection of biochemical assays measuring binding constants and enzyme inhibition values. Chemicals were initially screened at a single concentration in duplicate wells at a concentration of 10 [drawing 63] M for cytochrome P-450 assays and 25 [drawing 64] M for all others. […] These assays were run by Caliper Life Sciences (Hanover, MD) under contract to EPA. Short assay descriptions are available at: http://www.caliperls.com/products/contract-research/in-vitro/.
Cell-free HTS Assays: A collection of biochemical assays measuring binding constants and enzyme inhibition values. […] These assays were run by Caliper Life Sciences (Hanover, MD) under contract to EPA. Short assay descriptions are available at http://www.caliperls.com/products/contract-research/in-vitro/. Values for all endpoints were imported into GeneData Screener (Basel, Switzerland) and normalised to solvent controls from the same plate as the tested compounds and expressed as percent of neutral control. Concentration-response curves were fit in GeneData Screener (Basel, Switzerland) Condeseo module using the Hill equation and AC50 values were determined. […] Detailed description of the methods, data and analysis methods for this dataset are described in a separate publication.

PXR Human (NR1I2) = molecular target: T5, PXR Human (NR1I2) (Homo sapiens, UniProt O75469); assay: NCGC_PXR_Agonist_human: GAL4 BLAM Reporter gene assay: PXR Human; format: cell-based; details: agonist mode
T5 sequence (O75469 146-434 limits assumed): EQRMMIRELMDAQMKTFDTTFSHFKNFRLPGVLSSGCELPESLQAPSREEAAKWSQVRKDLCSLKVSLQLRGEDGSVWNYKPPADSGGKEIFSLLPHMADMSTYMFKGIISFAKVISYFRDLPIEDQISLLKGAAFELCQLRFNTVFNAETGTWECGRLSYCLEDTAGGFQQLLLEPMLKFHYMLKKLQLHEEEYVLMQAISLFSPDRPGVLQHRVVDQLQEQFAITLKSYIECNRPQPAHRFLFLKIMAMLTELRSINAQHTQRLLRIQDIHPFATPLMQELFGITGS
Method: These assays measure binding constants and enzyme inhibition values for nuclear receptors. The targets include [drawing 67] , [drawing 68] , [drawing 69] , [drawing 70] , [drawing 71] , [drawing 72] , [drawing 73] , [drawing 74] , [drawing 75] and [drawing 76] . Each of the nuclear receptor targets was measured in agonist mode. Assays were run at the NIH Chemical Genomics Center (Rockville, MD).
Cell-based HTS Assays: These assays measuring binding constants and enzyme inhibition values for nuclear receptors. The targets include AR, ER, FXR, LXR, PPARα, PPARδ, PPARγ, RXRα, RXRβ and PXR. Each of the nuclear receptor targets was measured in both agonist and antagonist mode, but the antagonist data is still undergoing analysis due to possible interference between cytotoxicity and assay activity, so antagonist mode data were not used in the present analysis. Assays were run at the NIH Chemical Genomics Center (Rockville, MD) as part of the Tox21 collaboration. […] The R^2 was required to be ≥0.5. Values where only the highest concentration exceeded 50% activity were excluded to eliminate weak or false positives. Detailed description of the methods, data and analysis methods for this dataset will be presented in a separate publication.

PXR (NR1I2) [12] = molecular target: T2, PXR (NR1I2); assay: ATG_PXR_TRANS: Factorial reporter gene assay (HepG2); format: cell-based; parameters: endogenous in cells; host or cells: HepG2; details: HepG2
Summary of the method: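 HepG2 cells transfected with multiplexed reporter libraries: cis-acting binding-site reporters (CIS) and a one-hybrid nuclear-receptor trans system (TRANS). Chemicals tested at seven concentrations, starting at the maximum tolerated concentration with three-fold serial dilutions.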

T3 sequence (P03372 whole entry): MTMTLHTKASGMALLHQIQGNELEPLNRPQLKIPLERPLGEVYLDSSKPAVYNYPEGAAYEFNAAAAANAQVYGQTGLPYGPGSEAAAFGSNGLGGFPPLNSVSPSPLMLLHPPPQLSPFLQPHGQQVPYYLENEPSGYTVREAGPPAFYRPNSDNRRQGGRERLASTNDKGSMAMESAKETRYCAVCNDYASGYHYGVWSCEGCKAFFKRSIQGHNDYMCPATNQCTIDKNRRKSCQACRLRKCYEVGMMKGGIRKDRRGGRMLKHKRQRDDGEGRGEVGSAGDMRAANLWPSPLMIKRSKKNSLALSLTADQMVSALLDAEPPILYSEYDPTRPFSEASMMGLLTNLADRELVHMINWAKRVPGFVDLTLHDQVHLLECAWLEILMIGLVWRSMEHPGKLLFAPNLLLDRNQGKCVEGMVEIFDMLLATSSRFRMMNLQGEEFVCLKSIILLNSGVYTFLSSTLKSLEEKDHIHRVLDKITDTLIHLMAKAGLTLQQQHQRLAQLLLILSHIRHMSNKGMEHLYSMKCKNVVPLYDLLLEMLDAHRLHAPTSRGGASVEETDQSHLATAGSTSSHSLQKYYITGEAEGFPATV

Structure (SMILES)	CHR_Rat_Liver_1_AnyLesion (Rat Liver [1]; rat, chronic study)	CHR_Rat_Liver_3_NeoplasticLesion (Rat Liver [2]; rat, chronic study)	CHR_Rat_Liver_2_PreneoplasticLesion (Rat Liver [3]; rat, chronic study)	ATG_Ahr_CIS [4]	CLZD_CYP1A2_24 (CYP1A2)	ATG_PXRE_CIS (PXR (NR1I2) [5]; HepG2)	CHR_Rat_Liver_1_AnyLesion (Rat Liver [1]; chronic rat study, liver)	CHR_Rat_Liver_3_NeoplasticLesion (Rat Liver [2]; chronic rat study, liver)	CLZD_CYP3A4_24 (CYP3A4)	CHR_Rat_Liver_2_PreneoplasticLesion (Rat Liver [3]; chronic rat study, liver)	CLZD_CYP2B6_24 (CYP2B6)	also measured
Nc1c(Cl)c(Cl)nc(C(=O)O)c1Cl [r245]	6	0	0	4.523	4.952	4.26						
Cc1c(F)c(F)c(COC(=O)C2C(/C=C(\Cl)C(F)(F)F)C2(C)C)c(F)c1F (stereo not shown) [r294]												CHR_Rat_Liver_1_AnyLesion (Rat Liver [1]; chronic study, rat liver): 0; CHR_Rat_Liver_3_NeoplasticLesion (Rat Liver [2]; chronic study, rat liver): 0; CHR_Mouse_Liver_2_PreneoplasticLesion (Mouse Liver [6]): 6; CHR_Mouse_Liver_1_AnyLesion (Mouse Liver [7]; chronic study, mouse liver): 6; CHR_Rat_Liver_2_PreneoplasticLesion (Rat Liver [3]; chronic study, rat liver): 0; ATG_ERa_TRANS ([8]; HepG2 reporter): 4.31; ATG_PXRE_CIS (PXR (NR1I2) [5]; HepG2 reporter): 4.886; CHR_Mouse_Liver_3_NeoplasticLesion (Mouse Liver [9]): 6
CCC(=O)C1C(=O)CC(C(=O)[O-])CC1=O.CCC(=O)C1C(=O)CC(C(=O)[O-])CC1=O.[Ca+2] (stereo not shown) [r254]	0	0	0	4.215								ATG_PPARg_TRANS [10]: 4.409
CCCCC(C#N)(Cn1cncn1)c1ccc(Cl)cc1 (stereo not shown) [row 217]					5.223	4.886	6	0	5.217	0	4.948	CHR_Mouse_Liver_1_AnyLesion (Mouse Liver [7]; chronic mouse study, liver): 6; ATG_ERa_TRANS ([8]; HepG2): 4.398
CCCN(CCC)c1c([N+](=O)[O-])cc(S(N)(=O)=O)cc1[N+](=O)[O-] [row 224]						5.921	0	0	4.897	0	4.989	NVS_NR_hPXR (PXR (NR1I2) [11]): 5.395; NCGC_PXR_Agonist_human (PXR Human (NR1I2)): 5.133; ATG_PXR_TRANS (PXR (NR1I2) [12]): 5.538

— PMC3038857, “Using Nuclear Receptor Activity to Stratify Hepatocarcinogens” (PLoS ONE, 2011)
